Consider two molecules from US11260060B2, “Methods and formulations for treatment of and/or protection against acute liver failure and other hepatotoxic conditions” (EGETIS THERAPEUTICS AB, priority 2016, dated 2022).

The nature of data set [1]: Forced temperature degradation of a NAC/CaM mixture at 70° C. for 6 hours. The class given is physicochemical. Particulars: NAC/CaM mixture in deionised water. The source says:
This Example describes short and long term stability studies involving mixtures of Calmangafodipir and NAC. Each mixture was formed by adding CaM (in the form of a trisodium salt powder) and NAC to deionised water and mixing on a Vortex shaker. The solution was then transferred to an amber vial. In these studies, typically no additives or stabilizers were used. Standard degradation studies undertaken at short term used the known method of “forced” temperature degradation by storing solutions at 70° C. for 6 hours (to indicate general longer-term storage performance). Samples were withdrawn at specified time points and analyzed by standard spectroscopic methods for N-acetylcysteine (NAC), Calmangafodipir (CaM) and Calmangafodipir-related substances.

The subject of data set [2] is acetaminophen-induced ALF in male B6C3F1 mice. Put plainly: Acetaminophen-induced ALF mouse model, ALAT at 12 hours. To be noted: NAC 30-300 mg/kg 1 hour post 300 mg/kg i.p. acetaminophen, FIG. 7. The data set is classed as in vivo. As to the method:
In each experiment, an i.p. injection of 300 mg/kg acetaminophen was made to male B6C3F1 mice to cause acetaminophen-induced ALF. In a first experiment, a 300 mg/kg dosage of NAC was administered 1-6 hours after acetaminophen administration. In a second experiment, NAC was administered in a dosage of 30-300 mg/kg NAC 1 hour after acetaminophen administration. In a third experiment, a dosage of 0.3-10 mg/kg calmangafodipir (CaM) was administered 6 hours post acetaminophen administration. In each experiment, ALAT was measured 12 hours following the i.p. injection of 300 mg/kg acetaminophen. FIGS. 6 to 8 show ALF response to administration of NAC and CaM, as detected by monitoring ALAT. […] FIG. 7 indicates the NAC dose-response of NAC administration of 30-300 mg/kg NAC 1 hour post acetaminophen administration. Mean±SEM ALAT levels at 12 hours following i.p. injection of 300 mg/kg acetaminophen in male B6C3F1 mice (n=4-11 per bar) are shown. […] Median±interquartile ALAT levels at 12 hours following i.p. injection of acetaminophen in male B6C3F1 mice (n=4-16 per bar) are shown. Due to some outlier values, and variability from the two experiments, both of which are not unexpected in such model system studies, the data points are plotted individually as well as the median values±inter-quartile range.

Data set [3] has the same test system. The data set is described as follows: Animal deaths in acetaminophen-induced ALF mice within 12 hour sampling period. The class given is in vivo. Particulars: within 12 hours after APAP 300 mg/kg i.p., i.v. treatment 1-6 hours post APAP, pooled doses. The source says: This Example studied the pharmaceutical effects of individual and combined therapies on animal deaths and involved male B6C3F1 mice. Even though serum enzyme activity studies are strongly indicative of liver failure or protection, it is also important to consider other data such as that related to subject animal deaths (%) as a function of the pharmacological treatment. The experiments of this Example studied the pharmaceutical effects of individual and combined therapies on animal deaths in male B6C3F1 mice. The mice were fasted for 8-10 hours and ALF was induced with 300 mg/kg acetaminophen (APAP), i.p., with treatment as specified in the following test groups: • APAP control (n=81, APAP 300 mg/kg i.p.), • NAC (n=53, 30-300 mg/kg i.v., 1-6 hours post APAP), • CaM (n=97, 0.3-10 mg/kg i.v., 1-6 hours post APAP), • CaDPDP (n=10, 3-10 mg/kg i.v., 6 hours post APAP), and • NAC/CaM (n=28, NAC 300 mg/kg, combined with 0.3-10 mg/kg CaM i.v., 2.5-6 hours post APAP).

Turning to `CC(=O)N[C@@H](CS)C(=O)O` [NAC, N-acetylcysteine], the “concentration of NAC during forced degradation” value in data set [1] is listed as “remained constant”. In data set [2], the “NAC dose-response of ALAT levels” value is recorded as “No clear dose-response could be detected”. In data set [3], the “Deaths, %” value worked out at 8% and the “Deaths, no.” value worked out at 4.

For the molecule calmangafodipir [CaM], in data set [1], the “decrease in CaM concentration during forced degradation” value was “about 1 % per hour”. In addition, in data set [3], the “Deaths, %” value came to 8% and the “Deaths, no.” value is listed as 8. Moreover, the “Deaths, %” value in data set [3] (listed as calmangafodipir) came to 8%.
